Holding throughout (type): in vivo
In assay [1] the test system is two-spotted mite [Tetranychus urticae (Koch)], adults. Description: Two-spotted mite acaricidal test, adults (2SM-A). The settings on record: percent of test compound in solution, 5-7 days. Here is the method:
(§1) The compounds in Table 1 above were tested for insecticidal activity using the following testing procedures. LC50 values, based on the results of these tests and calculated according to dosage-mortality curves, are expressed in Table 2.
(§2) Acaricidal Evaluation Test
(§3) The two-spotted mite (2SM) [Tetranychus urticae (Koch)]was employed in tests for miticides. The test procedure was as follows:
(§4) Pinto bean plants (Phaseolus sp.), approximately 10 cm tall, were transplanted into sandy loam soil in small cups and thoroughly infested with two-spotted mites of mixed ages and sexes. Twenty-four hours later the infested plants were inverted and dipped for 2-3 seconds in 50--50 acetone-water solutions of the test compound. Treated plants were held in the greenhouse, and 5-7 days later mortality was determined for both adult mites and the nymphs hatching from eggs which were on the plants at the time of treatment. Test concentrations ranged from 0.05% downward. The LC-50 value is expressed below in Table 2 under the headings "2SM-A" (i.e., adults) and "2SM-E" (i.e. eggs) in terms of percent concentration of the test compound in the solution.

The subject of assay [2] is Tobacco Budworm [Heliothis virescens (Fabricius)], larvae. Description: Tobacco budworm contact test, larvae (TBW-C). The following applies: percent of test compound in solution; second-instar larvae; 5 days. Here is the method:
as §1
(§5) Tobacco Budworm [Heliothis virescens (Fabricius)]
(a) Contact: Test compounds were diluted in a 50--50 acetonewater solution. Cotton (Gossypium sp.) cotyledons were immersed in the test solutions for 2-3 seconds and placed on a wire screen to dry. The dried leaves were placed in petri dishes containing a moistened piece of filter paper and infested with 5 second-instar tobacco budworm larvae. The dishes were placed in a high humidity chamber for 5 days, and percent mortality of the larvae recorded. Test concentrations ranged from 0.1% downward. The LC-50 values are expressed below in Table 2 under the heading "TBW-C" in terms of percent of the test compound in the solution.

Assay [3] deals with Tobacco Budworm [Heliothis virescens (Fabricius)], eggs. Description: Tobacco budworm egg test (TBW-E). The settings on record: percent of test compound in solution; 2-day old eggs. Here is the method:
(§6) The compounds in Table 1 above were tested for insecticidal activity using the following testing procedures.
as §5
(b). Eggs: Paper towel patches of 2-day old eggs of the tobacco budworm were dipped in acetone solutions of the test compound and placed in petri dishes containing a portion of larval rearing medium. […] Test concentrations ranged from 0.1% downward. The LC-50 value is expressed below in Table 2 under the heading "TBW-E" in terms of percent of the test compound in the solution.

For assay [4], the system named is Western Spotted Cucumber Beetle Larvae [Diabrotica undecimpunctata undecimpunctata (Mannherheim)]. Description: Western spotted cucumber beetle larvae soil test (Diabrotica). The settings on record: ppm of test compound in the soil. The method, then: as §1
Western Spotted Cucumber Beetle Larvae[Diabrotica undecimpunctata undecimpunctata (Mannherheim)]
Ten grams of moist potting soil was placed in a plastic cup. The test compound was dissolved in acetone. A 0.05 ml aliquot of the test sample, diluted to the desired concentration, was added to the soil. The cup was capped and the soil was mixed on a vortex mixer for approximately 15 seconds. An indentation was made on the surface of the soil and approximately 50 Diabrotica eggs were added. The eggs were covered with soil and maintained at room temperature (approximately 70° F. or 21° C.). Four days later a section of Romaine lettuce (Latuca sativa) leaf was placed in the treated cups. One week later the cups were examined for live larvae. TEst concentrations ranged from 25 ppm downward. The LC-50 value is expressed below in Table 2 under the heading "Diabrotica" in terms of ppm of the test compound in the soil.

The subject of assay [5] is two-spotted mite [Tetranychus urticae (Koch)], eggs. The experiment in a line: Two-spotted mite acaricidal test, eggs (2SM-E). The settings on record: percent of test compound in solution; nymphs hatching from eggs; 5-7 days. The method, then: as §1, §2, §3, §4
Assay [6] relates to Maize weevil (Sitophilus zeamais [Motschulsky]). Description: Maize weevil test on treated corn seeds. The following applies: 0.01% test solution, 48 hours, about 25° C. The method, then: Maize weevil (Sitophilus zeamais [Motschulsky])
Test compounds were diluted in a 50:50 acetone:water solution to a concentration of 0.01%. Four corn seeds [Zea mays, (L.)]which had been immersed in test solutions for 2-3 seconds and allowed to dry were placed in covered containers at a temperature of about 25° C. Mortality was recorded after 48 hours.

For assay [7], the system named is Cabbage Looper [Trichoplusia ni (Hubner)]. Description: Cabbage looper test (CL). The following applies: percent of test compound in solution; second-instar larvae; 3-5 days. Here is the method: as §6
Cabbage Looper [Trichoplusia ni (Hubner)]
The test compound was diluted in a 50--50 acetone-water solution. Cotyledons of hyzini squash (Calabacita abobrinha), approximately 1×1.5 inches, were immersed in the test solutions for 2-3 seconds and placed on a wire screen to dry. The dried leaves were placed in petri dished containing a moistened piece of filter paper and infested with 5 secondinstar cabbage looper larvae. The dished were placed in a high humidity chamber. Mortality of the larvae was recorded 3-5 days later. Test concentrations ranged from 0.1% downward. The LC-50 value is expressed below in Table 2 under the heading "CL" in terms of percent of the test compound in solution.

Assay [8] deals with Black Bean Aphid [Aphis fabae (Scop.)]. Description: Black bean aphid insecticidal test (BBA), foliar spray. The following applies: percent of test compound in sprayed solution; 48 hours. The method, then: as §6
Assay [9] concerns Beet Armyworm (Spodoptera exigua). The experiment in a line: Beet armyworm test (BAW). The following applies: percent of test compound in solution; second-instar larvae; five days. Here is the method:
as §1
Beet Armyworm (Spodoptera exigua)
Test compounds were diluted in a 50--50 acetone-water solution. Young leaves of sugar beets (Beta vulgaris) were immersed in the test solutions for 2-3 seconds and placed on a wire screen to dry. The dried leaves were placed in petri dishes containing a moistened filter paper and infested with five second-instar beet armyworm larvae. The dishes were placed in a high humidity chamber. Mortality of the larvae was recorded five days later. Test concentrations ranged from 0.1% downward. The LC-50 values are expressed below in Table 2 under the heading "BAW" in terms of percent of the test compound in solution.

Each structure is given as a SMILES string.

For `Clc1ccc(N=C(OCc2cccc(Oc3ccccc3)c2)C2CC2)cc1` [Compound 4, N-(4-Chlorophenyl)-O-(3-phenoxybenzyl)cyclopropylcarboximidate], in [1], the “LC50 2-SM A (adults)” value amounted to 0.01%. Also, in assay [2], the “LC50 TBW C (contact)” value is on record as 0.006%. For the same compound, the “LC50 TBW E (eggs)” value in assay [3] amounted to 0.1%. For the same compound, the “LC50 Diabrotica” value in [4] is reported as > 25 ppm (soil). Further, in assay [5], the “LC50 2-SM E (eggs)” value was determined as 0.05%.

On to `Fc1ccc(N=C(OCc2cccc(Oc3ccccc3)c2)C2CC2)cc1` [Compound 5], for which the “LC50 2-SM A (adults)” value in assay [1] is given as 0.05%. Also, the “LC50 TBW C (contact)” value in [2] was determined as 0.01%. Moreover, in [3], the “LC50 TBW E (eggs)” value is 0.08%. The “LC50 Diabrotica” value in assay [4] is listed as > 25 ppm (soil). The “LC50 2-SM E (eggs)” value in [5] came out at 0.05%.

On to `CC1(C)C(C(=Nc2ccc(F)c(Cl)c2)OCc2cccc(Oc3ccccc3)c2)C1(C)C` [Compound 12], for which the “LC50 2-SM A (adults)” value in assay [1] was 0.05%. For the same compound, the “LC50 TBW E (eggs)” value in assay [3] is recorded as more than 0.01%. In addition, the “LC50 Diabrotica” value in assay [4] is > 25 ppm (soil). The “LC50 2-SM E (eggs)” value in assay [5] amounted to 0.05%.

As to `Fc1ccc(COC(=Nc2ccc(C(F)(F)F)cc2)C2CC2)cc1Oc1ccccc1` [Compound 15], the mortality (usually the percentage killed) at 0.01 % in assay [6] amounted to 50%. Further, the “LC50 2-SM A (adults)” value in assay [1] is less than 0.05%. The “LC50 TBW E (eggs)” value in assay [3] came out at 0.017%. Moreover, the “LC50 Diabrotica” value in assay [4] is > 25 ppm (soil). For the same compound, the “LC50 2-SM E (eggs)” value in [5] is less than 0.05%.

As for `CC1CC1C(=Nc1ccc(Cl)cc1)OCc1cccc(Oc2ccccc2)c1` (stereo not drawn) [Compound 2], in [1], the “LC50 2-SM A (adults)” value is recorded as more than 0.05%. Besides, the “LC50 TBW E (eggs)” value in assay [3] is more than 0.01%. Besides, the “LC50 Diabrotica” value in assay [4] is > 25 ppm (soil). Further, in assay [5], the “LC50 2-SM E (eggs)” value is given as more than 0.05%.

Regarding `FC(F)(F)c1ccc(N=C(OCc2cccc(Oc3ccccc3)c2)C2CC2)c(Cl)c1` [Compound 8], in [1], the “LC50 2-SM A (adults)” value was more than 0.05%. In [2], the “LC50 TBW C (contact)” value is 0.1%. Besides, in [3], the “LC50 TBW E (eggs)” value was more than 0.1%. In addition, in assay [4], the “LC50 Diabrotica” value is 25 ppm (soil). Also, in assay [5], the “LC50 2-SM E (eggs)” value is recorded as more than 0.05%.

In the case of `c1ccc(Oc2cccc(COC(=Nc3ccc4c(c3)OCO4)C3CC3)c2)cc1` [Compound 13], in assay [6], the mortality at 0.01 % was 50%. Further, the “LC50 CL” value in assay [7] is listed as 0.002%. In [1], the “LC50 2-SM A (adults)” value is more than 0.05%. Besides, the “LC50 TBW E (eggs)” value in [3] is more than 0.01%. The “LC50 Diabrotica” value in [4] was > 25 ppm (soil). Also, the “LC50 2-SM E (eggs)” value in assay [5] is given as more than 0.05%.

For the compound `Clc1cccc(N=C(OCc2cccc(Oc3ccccc3)c2)C2CC2)c1` [Compound 3], in [1], the “LC50 2-SM A (adults)” value is more than 0.05%. Besides, in [3], the “LC50 TBW E (eggs)” value came to 0.1%. Besides, the “LC50 Diabrotica” value in assay [4] was > 25 ppm (soil). Moreover, the “LC50 2-SM E (eggs)” value in assay [5] is given as more than 0.05%.

As to `FC(F)(F)Oc1ccc(N=C(OCc2cccc(Oc3ccccc3)c2)C2CC2)cc1` [Compound 7], the “LC50 2-SM A (adults)” value in assay [1] came out at 0.01%. Also, in [2], the “LC50 TBW C (contact)” value was 0.001%. In addition, the “LC50 TBW E (eggs)” value in [3] turned out to be 0.05%. The “LC50 Diabrotica” value in assay [4] is 17 ppm (soil). Moreover, the “LC50 2-SM E (eggs)” value in assay [5] was 0.01%.

Turning to `Fc1ccc(N=C(OCc2cccc(Oc3ccccc3)c2)C2CC2)cc1Cl` [Compound 10], the “LC50 2-SM A (adults)” value in assay [1] is more than 0.05%. Also, in assay [3], the “LC50 TBW E (eggs)” value stood at 0.1%. Also, in assay [4], the “LC50 Diabrotica” value was > 25 ppm (soil). The “LC50 2-SM E (eggs)” value in assay [5] was more than 0.05%.

In the case of `FC(F)(F)c1cccc(N=C(OCc2cccc(Oc3ccccc3)c2)C2CC2)c1` [Compound 9], the “LC50 2-SM A (adults)” value in [1] is reported as more than 0.05%. For the same compound, in assay [3], the “LC50 TBW E (eggs)” value was more than 0.1%. Moreover, the “LC50 Diabrotica” value in [4] was > 25 ppm (soil). Further, the “LC50 2-SM E (eggs)” value in assay [5] is more than 0.05%. The “LC50 BBA” value in assay [8] is more than 0.05%.

For the compound `Fc1ccc(Oc2cccc(COC(=Nc3ccc(F)c(Cl)c3)C3CC3)c2)cc1` [Compound 11], the “LC50 2-SM A (adults)” value in assay [1] is listed as more than 0.05%. The “LC50 TBW E (eggs)” value in assay [3] is listed as 0.05%. Further, the “LC50 BAW” value in assay [9] is more than 0.1%. Also, the “LC50 Diabrotica” value in assay [4] is on record as > 25 ppm (soil). In addition, the “LC50 2-SM E (eggs)” value in assay [5] is on record as more than 0.05%.

Turning to `CC1(C(=Nc2ccc(Cl)cc2)OCc2cccc(Oc3ccccc3)c2)CC1` [Compound 1], the “LC50 2-SM A (adults)” value in [1] is more than 0.05%. In assay [2], the “LC50 TBW C (contact)” value worked out at 0.008%. Further, the “LC50 TBW E (eggs)” value in [3] came to 0.05%. Moreover, the “LC50 BAW” value in assay [9] was 0.025%. Also, the “LC50 Diabrotica” value in [4] is reported as > 25 ppm (soil). Also, the “LC50 2-SM E (eggs)” value in assay [5] is listed as more than 0.05%.

`Fc1ccc(COC(=Nc2ccc(C(F)(F)F)cc2)C2CC2)cc1Oc1ccc(Cl)cc1` [Compound 16]: in assay [1], the “LC50 2-SM A (adults)” value is more than 0.05%. In addition, the “LC50 TBW E (eggs)” value in assay [3] worked out at 0.023%. Moreover, the “LC50 Diabrotica” value in assay [4] was > 25 ppm (soil). In addition, the “LC50 2-SM E (eggs)” value in [5] is on record as more than 0.05%.

As for `FC(F)(F)c1ccc(N=C(OCc2cccc(Oc3ccccc3)c2)C2CC2)cc1` [Compound 6], the “LC50 2-SM A (adults)” value in [1] is reported as 0.01%. For the same compound, the “LC50 TBW C (contact)” value in assay [2] was 0.0015%. The “LC50 TBW E (eggs)” value in [3] is reported as 0.025%. Also, in [4], the “LC50 Diabrotica” value was 25 ppm (soil). Moreover, in assay [5], the “LC50 2-SM E (eggs)” value was more than 0.05%.

(Values after patent publication US4994488A, “Novel imidate insecticides” (ICI Americas Inc., priority 1989, dated 1991).)
